Measurements reported in patent US7638553B2, “Hydroxamates, their manufacture and use as pharmaceutical agents” (Hoffmann-La Roche Inc., priority 2004, dated 2009).
pIC50: −log10 of the molar value.

Legend:
HT-29 cells = assay: MTT assay on HT-29 human colon carcinoma cell line; format: cell-based; conditions: MTT assay after 5 days, read-out: IC90 HT29
Method: To show the activity of the compounds according to this invention, their effects on a human colon carcinoma cell line was evaluated using a standard MTT-assay. MTT (3-(4,5-dimethylthiazol-2-yl)-2,5-diphenyl tetrazolium bromide) is widely used for the quantitative determination of cytotoxic effects or in vitro chemosensitivity of tumor cells. The assay is based on the cleavage of the yellow tetrazolium salt (MTT) to purple formazan crystals by metabolic active cells. For details, see Rubinstein, L. V., et al., J. Natl. Cancer Inst. 82 (1990) 1113-1118.
We proceeded as follows: HT-29 cells (human colon carcinoma cell line, ATCC-No. HTB-38) were cultivated in RPMI 1640 medium with GlutaMAX™ I (Invitrogen, Cat-No. 61870-010), 2.5% fetal calf serum (FCS, Sigma Cat-No. F4135 (FBS)), 2 mM glutamine, 100 units/ml penicillin, 100 μg/ml streptomycin (=Pen/Strep from Invitrogen Cat. No. 15140). For the assay the cells were seeded in 384 well plates, 900 cells per well, in the same medium. At the next day, the compounds (dissolved 10 mM in DMSO) were added in various concentrations ranging from 30 μM to 1.5 nM. After 5 days, the MTT assay was done mainly according to the instructions of the manufacturer (Cell proliferation kit I, MTT, from Roche Molecular Biochemicals). In brief: MTT labeling reagent was added to a final concentration of 0.5 mg/ml, added and incubated for 4 hrs at 37° C., 5% CO2. During this incubation time purple formazan crystals are formed. After addition of the solubilization solution (20% Sodium Dodecyl Sulfate (SDS) in 0.02 M HCl) the plates were incubated overnight at 37° C., 5% CO2. After careful mixing, the plates were measured in Victor 2 (scanning multiwell spectrophotometer, Wallac) at 550 nm.
A decrease in number of living cells results in a decrease in the total metabolic activity in the sample. The decrease directly correlates to the amount of purple colour resulting from the solubilization of the purple formazan crystals. Determination of IC90 was done using XL-fit (XLfit software (ID Business Solution Ltd., Guilford, Surrey, UK)).

recombinant HDAC-1 = target: T1, recombinant HDAC-1 (Homo sapiens, UniProt Q13547); assay: HDAC biochemical quench assay; conditions: recombinant HDAC-1 purified from HEK 293 cells; 1 μM peptide substrate, 90 min at room temperature
T1 construct: made in house; host or cells: HEK 293 cells (ATCC-No. CRL 1573)
T1 sequence (Q13547 whole entry, species assumed): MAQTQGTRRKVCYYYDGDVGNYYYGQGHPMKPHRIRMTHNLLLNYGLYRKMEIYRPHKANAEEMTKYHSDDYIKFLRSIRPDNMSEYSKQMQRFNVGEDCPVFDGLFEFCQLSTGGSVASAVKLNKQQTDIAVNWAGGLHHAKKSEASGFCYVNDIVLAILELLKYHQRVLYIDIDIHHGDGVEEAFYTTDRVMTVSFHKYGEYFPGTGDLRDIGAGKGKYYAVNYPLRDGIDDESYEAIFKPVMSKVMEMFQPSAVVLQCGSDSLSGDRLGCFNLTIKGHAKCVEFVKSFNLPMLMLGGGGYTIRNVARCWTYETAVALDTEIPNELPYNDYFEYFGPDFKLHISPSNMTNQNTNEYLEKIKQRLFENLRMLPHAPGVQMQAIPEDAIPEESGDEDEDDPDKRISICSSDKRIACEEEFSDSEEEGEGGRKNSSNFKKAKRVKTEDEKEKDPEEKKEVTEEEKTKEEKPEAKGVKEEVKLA
Description: The function of histone deacetylase (HDAC) is the deacetylation of lysines in e.g. histone H4. A peptide of 17 amino acids derived from histone H4 was labeled with tetramethylrhodamine (TAMRA, fluorophore, Invitrogen) at the C-terminus and QSY-7™ (quencher dye, Invitrogen) at the N-terminus and was used as a substrate (TAMRA—first 17 aa of histone H4—QSY7). Following deacetylation by HDAC, the enzyme Lys C is able to cleave the peptide after lysine. […] Inhibition of HDAC by compounds results in low signals because Lys C could not cleave the substrate and the quench effect persists.
For dose response curves, 10 concentrations were diluted 1:3 starting at 30 μM. 10 μl compound dilution were put into each well of a 384 well plate. 10 μl HDAC were added (recombinant HDAC-1 purified from HEK 293 cells (human embryonic kidney cell line transformed by Adenovirus 5 fragments, ATCC-No. CRL 1573); enzyme activity has to be assessed for each preparation). 10 μl peptide substrate was added (1 μM final concentration, derived from 1 mM stock solution diluted 1:1000 in test buffer). After 90 min incubation at room temperature, the reaction was stopped by addition of 20 μl test buffer including 3 μg/ml Lys C and 0.075% Sodium Dodecyl Sulfate (SDS). After overnight incubation the fluorescence signal of TAMRA was measured (Victor 2 from Wallac, absorption 544 nm, emission 590 nm). […]

SMILES	IC90 (HT-29 cells) [nM]	pIC50 (recombinant HDAC-1)
CC(NC(=O)c1ccc(C(=O)NO)s1)c1ccc(SC(F)(F)F)cc1 (centres unmarked) [Example 1, Thiophene-2,5-dicarboxylic acid 2-hydroxyamide 5-{[1-(4-trifluoromethylsulfanyl-phenyl)-ethyl]-amide}]	340	–
CC(NC(=O)c1ccc(C(=O)NO)s1)c1ccc(OC(F)(F)F)cc1 (centres unmarked) [Example 2-1, Thiophene-2,5-dicarboxylic acid 2-hydroxyamide 5-{[1-(4-trifluoromethoxy-phenyl)-ethyl]-amide}]	–	8.51
CC(NC(=O)c1ccc(C(=O)NO)s1)c1cccc(SC(F)(F)F)c1 (centres unmarked) [Example 2-2, Thiophene-2,5-dicarboxylic acid 2-hydroxyamide 5-{[1-(3-trifluoromethylsulfanyl-phenyl)-ethyl]-amide}]	210	–
CSc1ccc(C(C)NC(=O)c2ccc(C(=O)NO)s2)cc1 (centres unmarked) [Example 2-3, Thiophene-2,5-dicarboxylic acid 2-hydroxyamide 5-{[1-(4-methylsulfanyl-phenyl)-ethyl]-amide}]	–	8.65
CC(NC(=O)c1ccc(C(=O)NO)s1)c1cccc(OC(F)(F)F)c1 (centres unmarked) [Example 3, Thiophene-2,5-dicarboxylic acid 2-hydroxyamide 5-{[1-(3-trifluoromethoxy-phenyl)-ethyl]-amide}]	220	–
